Experiment: xn = mol fraction of the nth substance listed
Conditions: Drop volume

NCC(=O)O [2-aminoacetic acid] + O
surface tension liquid-gas [mN/m]
Conditions	x1 = 0.000175	x1 = 0.000349	x1 = 0.000698	x1 = 0.001043	x1 = 0.001394	x1 = 0.00174	x1 = 0.002087	x1 = 0.002641
293.15 K	72.47	72.49	72.52	72.57	72.62	72.68	72.73	72.81
298.15 K	71.75	71.79	71.86	71.92	71.99	72.05	72.11	72.2
303.15 K	71.04	71.12	71.23	71.33	71.43	71.54	71.64	71.76
308.15 K	70.26	70.38	70.52	70.66	70.81	70.95	71.09	71.25
313.15 K	69.49	69.63	69.79	69.95	70.11	70.27	70.43	70.61

CCCCC(N)C(=O)O (stereo not given) [2-aminohexanoic acid] + O
surface tension liquid-gas [mN/m]
Conditions	x1 = 0.000156	x1 = 0.000311	x1 = 0.000524	x1 = 0.000699	x1 = 0.000873	x1 = 0.001048	x1 = 0.001222	x1 = 0.001411
293.15 K	72.4	72.21	72.02	71.85	71.71	71.48	71.28	71.09
298.15 K	71.55	71.28	71.14	71	70.82	70.59	70.42	70.18
303.15 K	70.74	70.54	70.43	70.22	70.06	69.79	69.65	69.44
308.15 K	69.9	69.8	69.62	69.44	69.23	69	68.8	68.59
313.15 K	69.2	69.02	68.91	68.68	68.47	68.18	68.02	67.87

CCC(N)C(=O)O (stereo not drawn) [(.+-.)-α-aminobutyric acid] + O
surface tension liquid-gas [mN/m]
Conditions	x1 = 0.000177	x1 = 0.000351	x1 = 0.000702	x1 = 0.001053	x1 = 0.001403	x1 = 0.001754	x1 = 0.002103	x1 = 0.002641
293.15 K	72.49	72.49	72.48	72.47	72.46	72.45	72.44	72.43
298.15 K	71.8	71.79	71.77	71.75	71.74	71.72	71.71	71.69
303.15 K	71.08	71.07	71.05	71.02	71	70.98	70.96	70.93
308.15 K	70.25	70.24	70.21	70.19	70.15	70.13	70.09	70.07
313.15 K	69.47	69.45	69.42	69.39	69.35	69.31	69.28	69.22

— the NIST ThermoML archive (doi:10.1021/acs.jced.7b00433)
